Reference: US6020006A, “Reduction of hair growth” (The Gillette Company, priority 1998, dated 2000)

What was measured:
[1] = test system: tissue-specific form of alkaline phosphatase; details: Millan, Clinica Chimica Acta. 209:123-129, 1992; cited from earlier work
[2] = test system: tissue nonspecific form of alkaline phosphatase; details: in several species; cited from earlier work
Human hair follicles = experiment: Human hair follicle growth assay; format: cell-based; details: for % Inhibition / reduction in growth rate: Day 6-Day 0, vs control
Protocol: Human hair follicles in growth phase (anagen) were isolated from face-lift tissue under a dissecting scope using a scalpel and watchmakers forceps. The skin was sliced into thin strips exposing 2-3 rows of follicles that could readily be dissected. Follicles were placed into 0.5 mL Williams E medium (Life Technologies, Gaithersburg, Md.) supplemented with […] L-glutamine, 10 μg/mL insulin, 10 ng/mL hydrocortisone, 100 units penicillin, 0.1 mg/mL streptomycin and 0.25 μg/mL amphotericin B. The follicles were incubated in 24 well plates (1 follicle/well) at 37° C. in an atmosphere of 5% CO2 and 95% air. Hair follicles were videorecorded in the 24-well plates under the dissecting scope under a power of 20×. Typically, initial recordings were made on day 0 (day follicles were placed in culture) or day 1, and again on days 7 or 8. Hair follicle lengths were assessed using an image analysis software system (Computer Eyes and NIH Image).

Alkaline phosphatase [3] = biological target: T1, Alkaline phosphatase (Mesocricetus auratus, UniProt A0A1U7QBN2); experiment: Alkaline phosphatase activity, hamster flank organ hair follicle enzyme; format: biochemical
T1 construct: the supernatant was used as the enzyme source; from tissue; host or cells: whole hamster flank organs, homogenized, 12,000×g supernatant
T1 sequence (A0A1U7QBN2 18-524): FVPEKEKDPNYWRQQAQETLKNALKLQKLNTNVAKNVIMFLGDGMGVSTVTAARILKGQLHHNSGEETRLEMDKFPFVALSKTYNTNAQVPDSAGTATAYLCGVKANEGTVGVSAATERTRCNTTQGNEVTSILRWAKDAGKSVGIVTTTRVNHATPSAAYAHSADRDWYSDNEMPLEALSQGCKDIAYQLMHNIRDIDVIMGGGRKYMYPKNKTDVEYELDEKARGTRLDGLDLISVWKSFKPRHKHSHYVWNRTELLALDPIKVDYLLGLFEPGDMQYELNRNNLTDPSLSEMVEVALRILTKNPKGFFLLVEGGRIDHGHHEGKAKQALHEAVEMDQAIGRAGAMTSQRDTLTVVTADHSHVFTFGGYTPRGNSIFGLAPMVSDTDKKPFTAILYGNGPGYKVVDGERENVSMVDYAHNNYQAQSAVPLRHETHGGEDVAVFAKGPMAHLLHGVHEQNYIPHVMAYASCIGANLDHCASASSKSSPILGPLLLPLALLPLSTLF
Protocol: (§1) Alkaline phosphatase activity was determined using a kit supplied by Sigma Chemical Co. Whole flank organs from hamsters or isolated human hair follicles were homogenized in a Tris-sucrose buffer, pH 7.5, using a polytron. The homogenate was centrifuged at 12,000×g for 5 minutes in a microcentrifuge, and the supernatant was used as the enzyme source. The supernatant (0.1 mL) was added to a reaction mixture containing 0.5 mL substrate (p-nitophenol phosphate) and 0.5 mL reaction buffer (both reagents supplied in the kit). Inhibitors were added in a volume of 0.1 mL. Water was used as a negative control. Reaction mixtures were incubated for 30 minutes at 37° C. The reaction mixtures were then transferred to a tube containing 10 mL 0.05N NaOH. Absorbance was measured at a wavelength of 410 nm. Concentrated hydrochloric acid (0.2 mL) was added to each tube and tubes were mixed. Again, absorbance was measured at 410 nm. Absorbance values from the second measurement were substrated from the first measurement to give normalized alkaline phosphatase activity.

Alkaline phosphatase [4] = biological target: T2, Alkaline phosphatase (Homo sapiens, UniProt P05186); experiment: Alkaline phosphatase activity, human hair follicle enzyme; format: biochemical
T2 construct: the supernatant was used as the enzyme source; from tissue; host or cells: isolated human hair follicles, homogenized, 12,000×g supernatant
T2 sequence (P05186 18-502 limits assumed): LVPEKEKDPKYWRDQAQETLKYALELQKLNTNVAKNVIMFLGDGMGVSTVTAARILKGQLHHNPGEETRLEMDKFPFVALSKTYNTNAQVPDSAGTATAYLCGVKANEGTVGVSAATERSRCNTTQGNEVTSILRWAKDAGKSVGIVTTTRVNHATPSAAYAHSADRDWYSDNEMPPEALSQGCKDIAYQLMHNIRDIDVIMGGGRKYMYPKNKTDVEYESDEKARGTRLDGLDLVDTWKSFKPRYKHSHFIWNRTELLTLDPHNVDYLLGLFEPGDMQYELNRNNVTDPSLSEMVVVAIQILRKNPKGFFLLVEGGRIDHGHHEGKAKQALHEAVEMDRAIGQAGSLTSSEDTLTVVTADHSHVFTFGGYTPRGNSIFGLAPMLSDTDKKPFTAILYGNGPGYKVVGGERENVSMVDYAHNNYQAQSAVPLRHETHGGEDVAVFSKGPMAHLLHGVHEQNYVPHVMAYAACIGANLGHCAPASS
Protocol: as §1

SMILES: N[C@@H](Cc1ccccc1)C(=O)O [phenylalanine]
- inhibition of tissue-specific alkaline phosphatase [1]: inhibit the tissue-specific form of alkaline phosphatase in a stereoselective fashion in that only the L-form is active

SMILES: N=C(N)NCCCC[C@H](N)C(=O)O [L-homeoarginine]
- inhibition of tissue nonspecific alkaline phosphatase [2]: inhibitor of the tissue nonspecific form of alkaline phosphatase in several species

SMILES: [Na+].[Na+].[Na+].[O]=[V]([O-])([O-])[O-] [Sodium Orthovanadate, sodium orthovanadate]
- % Inhibition / reduction in growth rate (Human hair follicles; 0.1 mM): 58 ± 8%
- % Inhibition / reduction in growth rate (Human hair follicles; 0.1 mM, listed as sodium orthovanadate): 58±8%
- Hair Follicle Length Increase (mm) (Day 6-Day 0) (Human hair follicles; 0.1 mM, control 0.77 ± .09 mm): 0.32 ± .06 mm
- IC50 (Alkaline phosphatase [3]; Flank Organ, Table 3, 30 minutes at 37° C.): 40 µM
- IC50 (Alkaline phosphatase [3]; hamster hair follicle enzyme): 40 µM
- IC50 (Alkaline phosphatase [4]; Human Hair Follicle, Table 3, 30 minutes at 37° C.): 75 µM
- IC50 (Alkaline phosphatase [4]; human hair follicle enzyme): 75 µM

SMILES: N[C@@H](Cc1c[nH]c2ccccc12)C(=O)O [tryptophan]
- inhibition of tissue-specific alkaline phosphatase [1]: inhibit the tissue-specific form of alkaline phosphatase in a stereoselective fashion in that only the L-form is active

SMILES: c1ccc(C2CN3CCSC3=N2)cc1 (racemic) [Tetramisole, [±]-2,3,5,6-tetrahydro-6-phenyl-imidazo [2,1-b] thiazole]
- Hair Follicle Length Increase (mm) (Day 6-Day 0) (Human hair follicles; 0.5 mM, control 1.08 ± .25 mm): 0.63 ± .06 mm
- inhibition at 500 µM (Human hair follicles; Homo sapiens, read-out: % Inhibition of hair growth): 42 ± 5%
- IC50 (Alkaline phosphatase [3]; hamster hair follicle enzyme): 125 µM

SMILES: CC(C)C[C@H](N)C(=O)O [leucine]
- inhibition of tissue-specific alkaline phosphatase [1]: inhibit the tissue-specific form of alkaline phosphatase in a stereoselective fashion in that only the L-form is active
